Measured values published in patent publication US6008247A, “2,4-bis[(4-amidino)phenyl]furans as anti-Pneumocystis carinii agents” (The University of North Carolina at Chapel Hill, priority 1998, dated 1999).
Where a name gives a salt, the structure may show the parent alone.

Experiments:
Pneumocystis carinii = test: In vivo evaluation on intravenous administration against P. carinii in the immunosuppressed rat model; conditions: saline = 100.0
[1] = test system: DNA duplex polymer poly(dA-dT); test: Thermal melting, interaction with the DNA duplex polymer poly(dA-dT); type: binding
Excerpt: (§1) Table 2 contains thermal melting results from evaluation of the interaction of compounds 3, 5 and 7 with the DNA duplex polymer poly(dA-dT). In order to rank the relative binding affinities for interactions with DNA, the duplex oligomer d(CGCGAATTCGCG)2 (A2 T2) was employed. […] The increase in melting temperature on complex formation with the furan dications are related to the binding affinities of these molecules with nucleic acid. This enhanced DNA affinity of the N-alkyl substituted amidines is though to the in large part due to additional non-bonded interactions between the alkyl groups and the walls of the minor groove.
^a) Increase in thermal melting of polyA-- polyT, see Boykin, […]

[2] = test system: duplex oligomer d(CGCGAATTCGCG)2 (A2 T2); test: Thermal melting with the duplex oligomer, ranking of relative DNA binding affinities; conditions: duplex oligomer A2T2
Excerpt: as §1
^b) Increase in thermal melting of the oligomer […], see

[3] = Toxicity in the immunosuppressed rat model of Pneumocystis carinii pneumonia; type: in vivo; conditions: iv
Excerpt: Data obtained with pentamidine, a compound currently used clinically for treatment of PCP, are included for comparison.
^c) Evluation of iv dosage of the furon dicatons against P. carinii i
rats as descibed in Boykin, supra.

N=C(NC1CCCC1)c1ccc(-c2coc(-c3ccc(C(=N)NC4CCCC4)cc3)c2)cc1 [Compound 4, 2,4-Bis[4-{N-(cyelopentylamidino)phenyl}]furan]
Cysts/g lung (Pneumocystis carinii; 1.0 umol/kg/d): 3.21 % of control
Cysts/g lung (Pneumocystis carinii; 10.0 umol/kg/d): 0.06 % of control
ΔTm (DNA), increase in thermal melting of polyA-polyT [1]: 20.4
ΔTM (oligomer), increase in thermal melting of the oligomer [2]: 13.6
Toxicity ([3]; 10.0 umol/kg/d): 0

CC(C)NC(=N)c1ccc(-c2coc(-c3ccc(C(=N)NC(C)C)cc3)c2)cc1 [Compound 2, 2,4-Bis[4-{N-(i-propylamidino)phenyl}]furan]
Cysts/g lung (Pneumocystis carinii; 0.25 umol/kg/d): 38.20 % of control
Cysts/g lung (Pneumocystis carinii; 1.0 umol/kg/d): 0.84 % of control
Cysts/g lung (Pneumocystis carinii; 5.0 umol/kg/d): 0.0003 % of control
Cysts/g lung (Pneumocystis carinii; 10.0 umol/kg/d): 0.03 % of control
ΔTm (DNA), increase in thermal melting of polyA-polyT [1]: 17.6
ΔTM (oligomer), increase in thermal melting of the oligomer [2]: 10.9
Toxicity ([3]; 0.25 umol/kg/d): 0
Toxicity ([3]; 1.0 umol/kg/d): 0
Toxicity ([3]; 5.0 umol/kg/d): 0
Toxicity ([3]; 10.0 umol/kg/d): 0

CC(C)CNC(=N)c1ccc(-c2coc(-c3ccc(C(=N)NCC(C)C)cc3)c2)cc1 [Compound 3, 2-,4-Bis[4-{-(i-butylamidino)phenyl}]furan]
ΔTm (DNA), increase in thermal melting of polyA-polyT [1]: 20.4
ΔTM (oligomer), increase in thermal melting of the oligomer [2]: 9.3

N=C(N)c1ccc(-c2coc(-c3ccc(C(=N)N)cc3)c2)cc1 [Compound 1, 2,4-Bis[4-{(amidino)pnehyl}]furan]
Cysts/g lung (Pneumocystis carinii; 10.0 umol/kg/d): 0.44 % of control
ΔTm (DNA), increase in thermal melting of polyA-polyT [1]: 19.0
ΔTM (oligomer), increase in thermal melting of the oligomer [2]: 9.1
Toxicity ([3]; 10.0 umol/kg/d): 0

c1cc(-c2coc(-c3ccc(C4=NCCN4)cc3)c2)ccc1C1=NCCN1 [Compound 5, 2,4-Bis[4,5-dihydro-1H-imidazol-2-yl)phenyl]furan Dihydrochloride]
ΔTm (DNA), increase in thermal melting of polyA-polyT [1]: 16.8
ΔTM (oligomer), increase in thermal melting of the oligomer [2]: 7.2

N=C(N)c1ccc(OCCCCCOc2ccc(C(=N)N)cc2)cc1 [pentamidine, reference compound]
Cysts/g lung (Pneumocystis carinii; 22.0 umol/kg/d): 1.46 % of control
